According to US20210364519A1, “DETERMINING CANCER RESPONSIVENESS TO TREATMENT” (Queensland University of Technology, priority 2018, published 2021):

Assays:
[1] = system: cell lines depleted of SASH1; assay: Olaparib sensitivity of cell lines depleted of SASH1 using siRNA; format: cell-based; conditions: number of cell lines tested
Description: FIG. 5. Depletion of SASH1 increases cancer cell sensitivity to Olaparib. A) Cell lines depleted of SASH1 have a reduced IC50 to Olaparib. B) Combined data of cell lines with SASH1 depletion showing a significant reduction in IC50 to Olaparib.

[2] = system: U2OS cells; assay: Olaparib sensitivity of stable U2OS cell line ectopically expressing recombinant SASH1; format: cell-based
Description: FIG. 6. Over expression of SASH1 infers resistance to Olaparib in U2OS cells.
Further to this, we made a stable U2OS cell line ectopically expressing recombinant SASH1.

Structure (SMILES): O=C(c1cc(Cc2n[nH]c(=O)c3ccccc23)ccc1F)N1CCN(C(=O)C2CC2)CC1 [Olaparib]
- cell lines with increase in sensitivity to Olaparib after depletion of SASH1 [1]: 9 out of 12
- effect of SASH1 over-expression on Olaparib response [2]: sufficient to induce resistance
